Measurements reported in patent US6479531B1, “Gastrin and cholecystokinin receptor ligands” (James Black Foundation Limited, priority 1998, dated 2002).

Target: T1, gastrin receptor (Rattus norvegicus, UniProt P30553)
T1 construct: The stomach was excised and flushed with ca. 1 ml of unbuffered physiological saline solution; from tissue; host or cells: isolated whole stomach of immature rats (ca. 21 days old)
T1 sequence (P30553 1-452): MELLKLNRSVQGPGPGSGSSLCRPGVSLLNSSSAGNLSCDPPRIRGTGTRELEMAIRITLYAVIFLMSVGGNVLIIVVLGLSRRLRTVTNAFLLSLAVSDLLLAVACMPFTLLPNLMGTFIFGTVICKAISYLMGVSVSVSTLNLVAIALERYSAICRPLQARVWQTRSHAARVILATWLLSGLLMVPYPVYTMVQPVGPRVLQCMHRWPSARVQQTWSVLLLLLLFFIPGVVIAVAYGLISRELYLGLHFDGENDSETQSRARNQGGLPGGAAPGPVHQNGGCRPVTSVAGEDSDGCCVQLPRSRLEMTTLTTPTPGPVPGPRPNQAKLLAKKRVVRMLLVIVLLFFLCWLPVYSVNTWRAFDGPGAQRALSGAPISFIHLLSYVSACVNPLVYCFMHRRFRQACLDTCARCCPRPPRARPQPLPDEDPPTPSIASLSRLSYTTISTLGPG
Experiment: gastrin antagonist activity in immature rat stomach assay (pentagastrin dose-response, acid secretion)
Conditions: isolated immature rat stomach, cumulative pentagastrin dose-response curves
Description: The compounds of the examples were also tested for gastrin antagonist activity in an immature rat stomach assay. The procedure was as follows:
The oesophagus of immature rats (33-50 g, ca. 21 days old) was ligated at the level of the cardiac sphincter and the duodenal sphincter was cannulated. The stomach was excised and flushed with ca. 1 ml of unbuffered physiological saline solution. The fundus was punctured and cannulated. A further 4-5 ml of unbuffered solution was flushed through the stomach to ensure the preparation was not leaking. The stomach was lowered into a jacketed organ bath containing 40 ml of buffered solution containing 3×10^−8 M 5-methylfurmethide, maintained at 37° and gassed vigorously with 95% O2/5% CO2. The stomach was continuously perfused at a rate of 1 ml min^−1 with unbuffered solution gassed with 100% O2 with the perfusate passing over an internally referenced pH-electrode fixed 12 cm above the stomach.
After 120 min of stabilisation the drugs were added directly to the serosal solution in the organ bath and after a further 60 min cumulative pentagastrin dose-response curves were started. Changes in acid secretion were monitored and the curves analysed according to Black et al., Br. J. Pharmacol., 1985, 86, 581.

| Compound | Gastrin pKb |
| --- | --- |
| O=C(O)c1cccc(NC(=O)c2nc([C@H]3CC4CC[C@H]3C4)[nH]c2COC23CC4CC(CC(C4)C2)C3)c1 [Example 291, endo-3-{[5-(Adamantan-1-yloxymethyl)-2-((1S,2S)-bicyclo[2.2.1]hept-2-yl)-1H-imidazole-4-carbonyl]-amino}-benzoic Acid] | 9.12 |
| (±)-3-{[5-(2-Adamantan-1-yl-ethyl)-2-[1-(2-methyl-propyl)-piperidin-2-yl])-1H-imidazole-4-carbonyl]-amino}-benzoic Acid [Example 140] | 7.54 |
| O=C(O)c1cccc(NC(=O)c2nc(C3CC4C=CC3C4)[nH]c2COC23CC4CC(CC(C4)C2)C3)c1 (racemic) [Example 234, (±)-endo-3-{[5-(Adamantan-1-yloxymethyl)-2-bicyclo[2.2.1]hept-5-en-2-yl-1H-imidazole-4-carbonyl]-amino}-benzoic Acid] | 8.71 |
| 5-{[5-(2-Adamantan-1-yl-ethyl)-2-[1-(2-methyl-propyl)-piperidin-2-yl])-1H-imidazole-4-carbonyl]-amino}-2-methyl-benzoic Acid [Example 142] | 6.75 |
| O=C(Nc1cccc(CC(O)C(=O)O)c1)c1nc(C2CCCCC2)[nH]c1CCC12CC3CC(CC(C3)C1)C2 (racemic) [Example 260, (±)-(3-{[5-(2-Adamantan-1-yl-ethyl)-2-cyclohexyl-1H-imidazole-4-carbonyl]-amino}-phenyl)-2-hydroxy-propionic Acid] | 7.01 |
| Cc1ccc(NC(=O)c2nc([C@H]3CC4C=C[C@@H]3C4)[nH]c2COC23CC4CC(CC(C4)C2)C3)cc1C(=O)O [Example 289, endo-5-{[5-(Adamantan-1-yloxymethyl)-2-((1S,2S)-bicyclo[2.2.1]hept-5-en-2-yl)-1H-imidazole-4-carbonyl]-amino}-2-methyl-benzoic Acid] | 8.74 |
| Cc1ccc(NC(=O)c2nc([C@@H]3CC4C=C[C@H]3C4)[nH]c2COC23CC4CC(CC(C4)C2)C3)cc1C(=O)O [Example 290, endo-5-{[5-(Adamantan-1-yloxymethyl)-2-((1R,2R)-bicyclo[2.2.1]hept-5-en-2-yl)-1H-imidazole-4-carbonyl]-amino}-2-methyl-benzoic Acid] | 8.55 |

Same assay, conditions: isolated immature rat stomach, cumulative pentagastrin dose-response curves, read-out: Gastrin pKb (converted)

| Kb [nM] | Compound |
| --- | --- |
| 52.5 | Cc1cc(C)c(-c2nc(C(=O)Nc3cccc(CC(=O)O)c3)c(COC34CC5CC(CC(C5)C3)C4)[nH]2)c(C)c1 [Example 227, (3-{[5-(Adamantan-1-yloxymethyl)-2-(2,4,6-trimethyl-phenyl)-1H-imidazole-4-carbonyl]-amino}-phenyl)-acetic Acid] |
| 6.31 | O=C(O)c1cccc(NC(=O)c2c(COC34CC5CC(CC(C5)C3)C4)nc(C34CCC(CC3)CC4)n2O)c1 [Example 314, 3-{[5-(Adamantan-1-yloxymethyl)-2-bicyclo[2.2.2]oct-1-yl-3-hydroxy-3H-imidazole-4-carbonyl]-amino}-benzoic Acid] |
| 1.38 | O=C(O)c1cccc(NC(=O)c2nc(C3C4CCC3CC4)[nH]c2COC23CC4CC(CC(C4)C2)C3)c1 (stereo not shown) [Example 232, 3-{[5-(Adamantan-1-yloxymethyl)-2-bicyclo[2.2.1]hept-7-yl-1H-imidazole-4-carbonyl]-amino}-benzoic Acid] |
| 15.8 | CN1CCCCC1c1nc(C(=O)Nc2cccc(C(=O)O)c2)c(CCC23CC4CC(CC(C4)C2)C3)[nH]1 (racemic) [Example 139, (±)-3-{[5-(2-Adamantan-1-yl-ethyl)-2-(1-methyl-piperidin-2-yl)-1H-imidazole-4-carbonyl]-amino}-benzoic Acid] |
| 20.4 | Cc1c(NC(=O)c2nc(C34CCC(CC3)CC4)[nH]c2COC23CC4CC(CC(C4)C2)C3)cccc1C(=O)O [Example 222, 3-{[5-(Adamantan-1-yloxymethyl)-2-bicyclo[2.2.2]oct-1-yl-1H-imidazole-4-carbonyl]-amino}-2-methyl-benzoic Acid] |
| 18.6 | O=C(O)c1cccc(NC(=O)c2c(COC34CC5CC(CC(C5)C3)C4)nc(-c3c(Cl)cccc3Cl)n2O)c1 [Example 313, 3-{[5-(Adamantan-1-yloxymethyl)-2-(2,6-dichloro-phenyl)-3-hydroxy-3H-imidazole-4-carbonyl]-amino}-benzoic Acid] |
| 6.17 | O=C(O)c1cccc(NC(=O)c2nc(C3CCC=CCC3)[nH]c2COC23CC4CC(CC(C4)C2)C3)c1 [Example 230, 3-{[5-(Adamantan-1-yloxymethyl)-2-cyclohept-4-enyl-1H-imidazole-4-carbonyl]-amino}-benzoic Acid] |
| 933 | O=C(O)C=Cc1cc(NC(=O)c2nc(C3CCCCC3)[nH]c2CCC23CC4CC(CC(C4)C2)C3)ccc1Cl [Example 269, 3-(5-{[5-(2-Adamantan-1-yl-ethyl)-2-cyclohexyl-1H-imidazole-4-carbonyl]-amino}-2-chloro-phenyl)-acrylic Acid] |
| 3.02 | Cc1ccc(NC(=O)c2nc(C3C4CCC3CC4)[nH]c2COC23CC4CC(CC(C4)C2)C3)cc1C(=O)O (stereo not shown) [Example 293, 5-{[5-(Adamantan-1-yloxymethyl)-2-bicyclo[2.2.1]hept-7-yl-1H-imidazole-4-carbonyl]-amino}-2-methyl-benzoic Acid] |
| 11.7 | CC1(c2nc(C(=O)Nc3cccc(C(=O)O)c3)c(COC34CC5CC(CC(C5)C3)C4)[nH]2)CCCCC1 [Example 303, 3-{[5-(Adamantan-1-yloxymethyl)-2-(1-methyl-cyclohexyl)-1H-imidazole-4-carbonyl]-amino}-benzoic Acid] |
| 224 | O=C(O)CNS(=O)(=O)c1cccc(NC(=O)c2nc(C3CCCCC3)[nH]c2CCC23CC4CC(CC(C4)C2)C3)c1 [Example 262, (3-{[5-(2-Adamantan-1-yl-ethyl)-2-cyclohexyl-1H-imidazole-4-carbonyl]-amino}-benzenesulfonylamino)-acetic Acid] |
| 13.2 | O=C(O)c1cccc(NC(=O)c2nc(C3C4C=CC3C=C4)[nH]c2COC23CC4CC(CC(C4)C2)C3)c1 (stereo not shown) [Example 288, 3-{[5-(Adamantan-1-yloxymethyl)-2-bicyclo[2.2.1]hepta-2,5-dien-7-yl-1H-imidazole-4-carbonyl]-amino}-benzoic Acid] |
| 91.2 | O=C(Cc1cccc(NC(=O)c2nc(C3CCCCC3)[nH]c2COC23CC4CC(CC(C4)C2)C3)c1)NO [Example 287, 5-(Adamantan-1-yloxymethyl)-2-cyclohexyl-1H-imidazole-4-carboxylic Acid (3-hydroxycarbamoylmethyl-phenyl)-amide] |
| 70.8 | O=C(O)c1cccc(NC(=O)c2nc(C3CCOCC3)[nH]c2COC23CC4CC(CC(C4)C2)C3)c1 [Example 233, 3-{[5-(Adamantan-1-yloxymethyl)-2-(tetrahydro-pyran-4-yl)-1H-imidazole-4-carbonyl]-amino}-benzoic Acid] |
| 64.6 | Cc1ccccc1-c1nc(CCc2cccc(C(=O)O)c2)c(CCC23CC4CC(CC(C4)C2)C3)n1C [Example 278, 3-{2-[5-(2-Adamantan-1-yl-ethyl)-1-methyl-2-o-tolyl-1H-imidazol-4-yl]-ethyl}-benzoic Acid] |
| 355 | O=C(O)CCc1cc(NC(=O)c2nc(C3CCCCC3)[nH]c2CCC23CC4CC(CC(C4)C2)C3)ccc1Cl [Example 271, 3-(5-{[5-(2-Adamantan-1-yl-ethyl)-2-cyclohexyl-1H-imidazole-4-carbonyl]-amino)-2-chloro-phenyl)-propionic Acid] |
| 10 | Cc1ccc(NC(=O)c2nc(-c3ccccc3C)[nH]c2COC23CC4CC(CC(C4)C2)C3)cc1C(=O)O [Example 305, 5-{[5-(Adamantan-1-yloxymethyl)-2-o-tolyl-1H-imidazole-4-carbonyl]-amino}-2-methyl-benzoic Acid] |
| 1000 | Cc1ccccc1-c1nc(CCC23CC4CC(CC(C4)C2)C3)c(CCc2cccc(C(=O)O)c2)n1C [Example 277, 3-{2-[5-(2-Adamantan-1-yl-ethyl)-3-methyl-2-o-tolyl-3H-imidazol-4-yl]-ethyl}-benzoic Acid] |
| 195 | O=C(O)Cc1c(F)ccc(NC(=O)c2nc(C3CCCCC3)[nH]c2CCC23CC4CC(CC(C4)C2)C3)c1F [Example 270, (3-{[5-(2-Adamantan-1-yl-ethyl)-2-cyclohexyl-1H-imidazole-4-carbonyl]-amino}-2,6-difluoro-phenyl)-acetic Acid] |
| 35.5 | O=C(O)Cc1cccc(NC(=O)c2nc(C3CCCCCC3)[nH]c2COC23CC4CC(CC(C4)C2)C3)c1 [Example 229, (3-{[5-(Adamantan-1-yloxymethyl)-2-cycloheptyl-1H-imidazole-4-carbonyl]-amino}-phenyl)-acetic Acid] |
| 0.851 | O=C(O)c1cccc(NC(=O)c2nc(C3CCCCCCC3)[nH]c2COC23CC4CC(CC(C4)C2)C3)c1 [Example 297, 3-{[5-(Adamantan-1-yloxymethyl)-2-cyclooctyl-1H-imidazole-4-carbonyl]-amino}-benzoic Acid] |
